pKd: −log10 of the molar value. Calls of active or inactive are those of the source. The calls are words filed in the database; no cut-off is given here. *1 amine or outer side, *2 acyl side, *3 side chain or, on linkers, in order; H or OH if unused. Where a SMILES comes first, the peptide text is derived from it. Bridges are numbered along the chain shown (N, C = ends). [ ]: non-standard residue; d: D form. The star is where a group is joined. X1 = NC1=N[C@@H]([C@H](N[*:1])C(=O)[*:2])C[C@H](O)N1; ΔAla(Z-3-ureido) = NC(=O)N/C=C(\N)C(=O)O; β3hOrn = NCCC[C@H](N)CC(=O)*; Dap = NC[C@H](N)C(=O)O
Legend:
Assay type in all cases: nucleic-acid assay
Nucleic Acid [1] = assay: Displacement of gentamycin from Escherichia coli 16S ribosomal 27-nucleotide A-site RNA by T2 filter NMR spectroscopy based competitive displacement assay
Nucleic Acid [2] = assay: Displacement of gentamycin from Escherichia coli 16S ribosomal 27-nucleotide A-site RNA by water Logsy NMR spectroscopy based competitive displacement assay
Nucleic Acid [3] = assay: Displacement of gentamycin from RNA bulge site of Escherichia coli 16S ribosomal 27-nucleotide A-site RNA by water Logsy NMR spectroscopy based noncompetitive binding assay
Nucleic Acid [4] = assay: Displacement of gentamycin from RNA bulge site of Escherichia coli 16S ribosomal 27-nucleotide A-site RNA by T2 filter NMR spectroscopy based competitive binding assay
Nucleic Acid [5] = assay: Binding affinity to A-site RNA
Nucleic Acid [6] = assay: Binding affinity to Escherichia coli 23S rRNA L11 binding domain
Nucleic Acid [7] = assay: Binding affinity to RNAse P
Nucleic Acid [8] = assay: Binding affinity to small bacterial subunit RNA
Nucleic Acid [9] = assay: Binding affinity to Escherichia coli 23S rRNA L11 binding domain in presence of protein
Nucleic Acid [10] = assay: Binding affinity to ribosome/exit tunnel RNA region
Nucleic Acid [11] = assay: Binding affinity to RNA ribosome intersubuint bridge

For `Cc1cc(N(C)C)nc2cc(N)ccc12`, the Activity (Nucleic Acid [1]) was “Active” and the Activity (Nucleic Acid [2]) was “Active”.

`N[C@@H]1C[C@H](N)[C@@H](O)[C@H](O)[C@H]1O` was tested, and the Activity (Nucleic Acid [1]) was “Active” and the Activity (Nucleic Acid [2]) was “Active”.

With `c1ccc2nc3ccccc3cc2c1` the Activity (Nucleic Acid [3]) was “Active” and the Activity (Nucleic Acid [4]) was “Active”.

For `NCC[C@H](O)C(=O)N[C@@H]1C[C@H](N)[C@@H](O[C@H]2O[C@H](CN)[C@@H](O)[C@H](O)[C@H]2O)[C@H](O)[C@H]1O[C@H]1O[C@H](CO)[C@@H](O)[C@H](N)[C@H]1O` [AMIKACIN], the pKd (Nucleic Acid [5]) was 7.30.

`CN[C@@H]1[C@@H](O[C@H]2O[C@H](CO)[C@@H](N)[C@H](O)[C@H]2O)OC2C[C@@H](N)[C@@H](O[C@H]3[C@H](O)[C@@H](O)[C@H](N)C[C@@H]3N)OC2[C@@H]1O` (stereo partly drawn) [APRAMYCIN] was tested, and the pKd (Nucleic Acid [5]) was 7.22.

Work on `NC[C@H]1O[C@H](O[C@H]2[C@H](O)[C@@H](O[C@H]3O[C@H](CO)[C@@H](O)[C@H](N)[C@H]3O)[C@H](N)C[C@@H]2N)[C@H](N)[C@@H](O)[C@@H]1O` [BEKANAMYCIN] yielded a pKd (Nucleic Acid [5]) of 7.22.

`NC[C@@H]1O[C@H](O[C@H]2[C@@H](O)[C@H](O[C@@H]3[C@@H](O)[C@H](N)C[C@H](N)[C@H]3O[C@H]3O[C@H](CN)[C@@H](O)[C@H](O)[C@H]3N)O[C@@H]2CO)[C@H](N)[C@@H](O)[C@@H]1O` [FRAMYCETIN] showed a pKd (Nucleic Acid [5]) of 7.22.

Molecule `CN[C@@H]1[C@@H](O)[C@@H](O[C@@H]2[C@@H](O)[C@H](O[C@H]3O[C@H]([C@@H](C)O)[C@@H](O)[C@H](O)[C@H]3N)[C@@H](N)C[C@H]2N)OC[C@]1(C)O` [GENETICIN] has a pKd (Nucleic Acid [5]) greater than 7.00.

`NC[C@@H]1O[C@@H](O[C@H]2[C@H](O)[C@@H](O[C@H]3O[C@H](CO)[C@@H](O)[C@H](N)[C@H]3O)[C@H](N)C[C@@H]2N)[C@@H](O)[C@H](O)[C@H]1O` [KANAMYCIN A] gave a pKd (Nucleic Acid [5]) of 7.00.

`NC[C@@H]1O[C@H](O[C@H]2[C@@H](O)[C@H](O[C@@H]3[C@@H](O)[C@H](N)C[C@H](N)[C@H]3O[C@H]3O[C@H](CO)[C@@H](O)C[C@H]3N)O[C@@H]2CO)[C@H](N)[C@@H](O)[C@@H]1O[C@H]1O[C@H](CO)[C@@H](O)[C@H](O)[C@@H]1O` [LIVIDOMYCIN] showed a pKd (Nucleic Acid [5]) of 7.55.

`C=C(NC(=O)c1csc(-c2nc3c(cc2O)-c2nc(cs2)C(=O)NC(C(C)O)C(=O)N/C(=C\C)c2nc(cs2)C(=O)NC2CC(O)C(=O)OCc4cccc5[nH]c(c(C)c45)C(=O)SCC(NC(=O)c4csc2n4)c2nc-3cs2)n1)C(N)=O` (stereo not drawn) [NOSIHEPTIDE] showed a pKd (Nucleic Acid [6]) greater than 5.52.

Work on `NC[C@@H]1O[C@H](O[C@H]2[C@@H](O)[C@H](O[C@@H]3[C@@H](O)[C@H](N)C[C@H](N)[C@H]3O[C@H]3O[C@H](CO)[C@@H](O)[C@H](O)[C@H]3N)O[C@@H]2CO)[C@H](N)[C@@H](O)[C@@H]1O` [PAROMOMYCIN] yielded a pKd (Nucleic Acid [5]) greater than 4.92.

In the case of `NC(=O)Cc1ccccn1` [PYRIDINE ACETAMIDE], the pKd (Nucleic Acid [7]) was 4.70.

`NC[C@H]1O[C@H](O[C@H]2[C@H](O[C@@H]3O[C@H](CO)[C@@H](O)[C@H]3O)[C@@H](O)[C@H](N)C[C@@H]2N)[C@H](N)[C@@H](O)[C@@H]1O` [RIBOSTAMYCIN] showed a pKd (Nucleic Acid [5]) of 5.77.

With `CN[C@@H]1[C@H](O[C@H]2[C@H](O[C@H]3[C@H](O)[C@@H](O)[C@H](N=C(N)N)[C@@H](O)[C@@H]3N=C(N)N)O[C@@H](C)[C@]2(O)C=O)O[C@@H](CO)[C@H](O)[C@H]1O` [STREPTOMYCIN] the pKd (Nucleic Acid [8]) was greater than 4.92.

`C=C(NC(=O)C(=C)NC(=O)c1csc(C2=N[C@@H]3c4csc(n4)[C@H]4NC(=O)c5csc(n5)[C@H]([C@](C)(O)[C@@H](C)O)NC(=O)[C@H]5CSC(=N5)/C(=C/C)NC(=O)[C@H]([C@@H](C)O)NC(=O)c5csc(n5)[C@]3(CC2)NC(=O)[C@H](C)NC(=O)C(=C)NC(=O)[C@H](C)NC(=O)[C@H]([C@@H](C)CC)N[C@@H]2C=Cc3c([C@H](C)O)cc(nc3[C@H]2O)C(=O)O[C@@H]4C)n1)C(N)=O` [THIOSTREPTON] was tested, and the pKd (Nucleic Acid [9]) was greater than 7.30 and the pKd (Nucleic Acid [6]) was 5.89.

Work on `NC[C@H]1O[C@H](O[C@H]2[C@H](O)[C@@H](O[C@H]3O[C@H](CO)[C@@H](O)[C@H](N)[C@H]3O)[C@H](N)C[C@@H]2N)[C@H](N)C[C@@H]1O` [TOBRAMYCIN] yielded a pKd (Nucleic Acid [5]) of 7.10.

`CC[C@H]1OC(=O)C[C@@H](O)[C@H](C)[C@@H](O[C@@H]2O[C@H](C)[C@@H](O[C@H]3C[C@@](C)(O)[C@@H](O)[C@H](C)O3)[C@H](N(C)C)[C@H]2O)[C@@H](CC=O)C[C@@H](C)C(=O)/C=C/C(C)=C/[C@@H]1CO[C@@H]1O[C@H](C)[C@@H](O)[C@@H](OC)[C@H]1OC` [TYLOSIN] showed a pKd (Nucleic Acid [10]) of 8.56.

In the case of `NCCC[C@H](N)CC(=O)N[C@H]1CNC(=O)[C@H]([C@H]2C[C@H](O)NC(N)=N2)NC(=O)/C(=C/NC(N)=O)NC(=O)[C@H](CO)NC(=O)[C@H](CO)NC1=O` [VIOMYCIN] (β3hOrn-[Dap]SS[ΔAla(Z-3-ureido)][X1]; lactam 1-C), the pKd (Nucleic Acid [11]) was greater than 5.52.
